Test results from article PMC11130353, “Using host-mimicking conditions and a murine cutaneous abscess model to identify synergistic antibiotic combinations effective against Pseudomonas aeruginosa” (Frontiers in Cellular and Infection Microbiology, 2024).
In brackets after ≈: the same amount, converted by molar mass. Entries after “also recorded” stand apart in the source; their conditions may differ. Where two headings read alike, the source gives them in different places.

Key:
P. aeruginosa LESB58 [1] = test: microbe, parasite or virus in culture; format: cell-based, Pseudomonas aeruginosa; conditions: for MIC: Pseudomonas aeruginosa; for Fold change TCM vs MHB (MIC): MIC in TCM vs MIC in MHB
Procedure: (§1) For susceptibility testing under standard conditions, bacteria were cultured in Muller Hinton Broth MHB (Fort Richards Laboratories). […] Further susceptibility testing was also conducted in MHB supplemented with FBS (5% v/v) and DMEM supplemented with glucose (1% w/v) and MHB (10% v/v).
The minimum inhibitory concentration (MIC) of each antibiotic was determined using the broth microdilution method in 96-well plates. […] Briefly, antibiotics were two-fold serially diluted in MHB or TCM prior to adding 1 × 10^6 CFU mL^-1 bacteria. […] The MIC was recorded as the lowest antibiotic concentration with no visible growth and the median value of at least three biological replicates reported.

P. aeruginosa PAO1 = test: Minimum inhibitory concentration, broth microdilution; format: cell-based, Pseudomonas aeruginosa; conditions: for MIC: Pseudomonas aeruginosa, PAO1; for Fold change TCM vs MHB (MIC): MIC in TCM vs MIC in MHB
Procedure: as §1
The minimum inhibitory concentration (MIC) of each antibiotic was determined using the broth microdilution method in 96-well plates. […] Briefly, antibiotics were two-fold serially diluted in MHB or TCM prior to adding 1 × 10^6 CFU mL^-1 bacteria. Plates were incubated at 37°C for 22-24 hours. The MIC was recorded as the lowest antibiotic concentration with no visible growth and the median value of at least three biological replicates reported.

P. aeruginosa LESB58 [2] = test: In vitro synergy, checkerboard assay; format: cell-based, Pseudomonas aeruginosa; conditions: MHB; for FICI, drug combined with CAZ / FICI, drug combined with CZA: FICI <= 0.5 indicates synergy
Procedure: (§2) For susceptibility testing under standard conditions, bacteria were cultured in Muller Hinton Broth MHB (Fort Richards Laboratories). Host mimicking conditions in vitro were simulated using tissue culture medium (TCM) consisting of Dulbecco’s modified Eagle medium (DMEM; Gibco #11965) supplemented with FBS (Moregate Biotech) (5% v/v) and glucose (1% w/v). Further susceptibility testing was also conducted in MHB supplemented with FBS (5% v/v) and DMEM supplemented with glucose (1% w/v) and MHB (10% v/v).
(§3) The P. aeruginosa LESB58.lux strain was used for in vitro synergy experiments with azithromycin in MHB and all antibiotic combinations in TCM to determine bacterial growth (as visual inspection and absorbance measurements were unreliable). Synergy was determined using the checkerboard method ([Berenbaum, 1978]; [Pletzer and Hancock, 2018]) in at least triplicate. Each antibiotic was two-fold serially diluted in sterile water before transferring to a 96-well plate containing 1 × 10^6 CFU mL^-1 bacteria in MHB or TCM. Plates were incubated at 37°C for 22-24 hours. The MIC alone or in combination was recorded as the lowest antibiotic concentration with no visible growth. For experiments using the LESB58.lux strain no visible growth was defined as an at least 95% reduction compared to the no antibiotic growth control in luminescence detected using a ClarioStar plate reader. The fractional inhibitory concentration index (FICI) was calculated as [(MICA in combination)/MICA] + [(MICB in combination)/MICB]. FICI values of 0.5 or below indicated synergy, while values above 0.5 up to and including 1 were taken to indicate additivity. FICI values above 1 indicate indifference or antagonism ([Odds, 2003]).

P. aeruginosa LESB58-lux = test: In vitro synergy, checkerboard assay (luminescence readout); format: cell-based, Pseudomonas aeruginosa; conditions: TCM; for FICI, drug combined with CAZ / FICI, drug combined with CZA: FICI <= 0.5 indicates synergy
Procedure: as §2, §3

[3] = Procedure: Mice used in this study were female Swiss Webster aged approximately 6-7 weeks and sourced from the University of Otago Biomedical Research Facility. […] Briefly, the fur on the back of each mouse was removed by shaving and chemical depilation. Antibiotics were tested for skin toxicity by injecting 50 μL of antibiotic suspension subcutaneously into naïve mice, and subsequent inspection of the skin for inflammation on the next day. P. aeruginosa LESB58 was grown to mid-log phase in dYT broth, washed twice in sterile PBS (Gibco, pH 7.4), and resuspended in PBS to ~1 x 10^8 CFU per 50 μL inoculum. The bacterial suspension (50 μL) was injected subcutaneously into the right side of the dorsum, followed one hour later by 50 μL of antibiotic treatment injected directly into the infected area. […] Combination treatments were administered as a single 50 μL injection containing both antibiotics. The concentration of each antibiotic in the combination was the same as when it was used alone. Progression of the infection was monitored daily, and abscess dimensions were measured on day three using a calliper. On day three, abscess tissue and pus were excised, homogenized in sterile PBS using SPEX SamplePrep 1600 MiniG for five minutes and bacterial CFU counts determined by serial dilution.
P. aeruginosa LESB58 [4] = test: Murine high density subcutaneous skin abscess model; format: in vivo, Pseudomonas aeruginosa; conditions: Colistin
Procedure: Mice used in this study were female Swiss Webster aged approximately 6-7 weeks and sourced from the University of Otago Biomedical Research Facility. […] The subcutaneous abscess infection model was performed as previously described ([Pletzer et al., 2017]) with a higher inoculum. Briefly, the fur on the back of each mouse was removed by shaving and chemical depilation. Antibiotics were tested for skin toxicity by injecting 50 μL of antibiotic suspension subcutaneously into naïve mice, and subsequent inspection of the skin for inflammation on the next day. P. aeruginosa LESB58 was grown to mid-log phase in dYT broth, washed twice in sterile PBS (Gibco, pH 7.4), and resuspended in PBS to ~1 x 10^8 CFU per 50 μL inoculum. The bacterial suspension (50 μL) was injected subcutaneously into the right side of the dorsum, followed one hour later by 50 μL of antibiotic treatment injected directly into the infected area. […] Combination treatments were administered as a single 50 μL injection containing both antibiotics. The concentration of each antibiotic in the combination was the same as when it was used alone. Progression of the infection was monitored daily, and abscess dimensions were measured on day three using a calliper. On day three, abscess tissue and pus were excised, homogenized in sterile PBS using SPEX SamplePrep 1600 MiniG for five minutes and bacterial CFU counts determined by serial dilution. In this model, synergy was defined as being a significant difference between the combination treated group and the amalgamated group of single drug treated animals ([Fantin and Carbon, 1992]; [Pletzer et al., 2018]).
Statistical analysis was performed using GraphPad Prism 9.5.1. Bacterial CFU and abscess size data from in vivo experiments was analysed by Kruskal-Wallace test with Dunn’s correction for multiple comparisons. The data was considered significant when p-values were below 0.05 or 0.01 as indicated.

[5] = LESB58, read-out: MIC in MHB, MHB, 20-24 h
[6] = LESB58, read-out: MIC in TCM, TCM (DMEM + 1% glucose + 5% FBS), 20-24 h
[7] = 50 μL injected subcutaneously, skin inspected next day
[8] = tigecycline and tobramycin groups, compared to the vehicle control, day 3

| Structure (SMILES) | MIC (P. aeruginosa LESB58 [1]; [5]) [µg/mL] | MIC (P. aeruginosa LESB58 [1]; [6]) [µg/mL] | MIC (P. aeruginosa PAO1; read-out: MIC in MHB) [µg/mL] | MIC (P. aeruginosa PAO1; read-out: MIC in TCM) [µg/mL] | FICI, drug combined with CAZ (P. aeruginosa LESB58 [2]) | Highest tolerated dose tested [3, 7] [mg/mL] | Fold change TCM vs MHB (MIC) (P. aeruginosa LESB58 [1]) | Fold change TCM vs MHB (MIC) (P. aeruginosa PAO1) | Fold decrease in CAZ MIC, drug combined with CAZ (P. aeruginosa LESB58 [2]) | Fold decrease in CZA MIC, drug combined with CZA (P. aeruginosa LESB58 [2]) | Fold decrease in other MIC, drug combined with CAZ (P. aeruginosa LESB58 [2]) | Fold decrease in other MIC, drug combined with CZA (P. aeruginosa LESB58 [2]) | further results |
| --- | --- | --- | --- | --- | --- | --- | --- | --- | --- | --- | --- | --- | --- |
| O=C(O)c1cn(C2CC2)c2cc(N3CCNCC3)c(F)cc2c1=O [CIP, ciprofloxacin] | 3.13 (≈ 9.45 µM) | 50 | 0.156 (≈ 0.471 µM) | 1.25 (≈ 3.77 µM) | 0.5 | 40 |  |  |  |  |  |  | FICI, drug combined with CZA (P. aeruginosa LESB58 [2]): 0.5; Ceftazidime-avibactam MIC in combination with the named drug (P. aeruginosa LESB58-lux): 4 µg/mL; FICI, drug combined with CAZ (P. aeruginosa LESB58-lux; LESB58-lux): 0.63; FICI, drug combined with CZA (P. aeruginosa LESB58-lux; LESB58-lux): 0.63 |
| CNC(C)C1CCC(N)C(OC2C(N)CC(N)C(OC3OCC(C)(O)C(NC)C3O)C2O)O1 (stereo not drawn) [GEN, gentamicin] | 25 (≈ 52.3 µM) | 500 | 1.56 (≈ 3.27 µM) | 25 (≈ 52.3 µM) | 0.25 | 20 | 20 | 16 | 8 | 8 | 8 | 8 | Toxic (visible skin irritation, inflammation, blood vessels, swelling) [3, 7]: 40 mg/mL |
| Cn1c(N)c(NC(=O)NCCN)c[n+]1CC1=C(C(=O)O)N2C(=O)[C@@H](NC(=O)/C(=N\OC(C)(C)C(=O)[O-])c3nsc(N)n3)[C@H]2SC1 [Ceftolozane] |  |  |  |  |  | 50 |  |  |  |  |  |  |  |
| C[C@@H](O)[C@H]1C(=O)N2C(C(=O)O)=C(S[C@@H]3CN[C@H](C(=O)N(C)C)C3)[C@H](C)[C@H]12 [MEM] |  |  |  |  |  |  |  |  |  |  |  |  | Toxic (visible skin irritation, inflammation, blood vessels, swelling) [3, 7]: 20 mg/mL; Highest tolerated dose tested ([3]; mouse, in vivo, sc): 10 mg/mL |
| NC[C@H]1O[C@H](O[C@H]2[C@H](O)[C@@H](O[C@H]3O[C@H](CO)[C@@H](O)[C@H](N)[C@H]3O)[C@H](N)C[C@@H]2N)[C@H](N)C[C@@H]1O [TOB, tobramycin] | 3.13 (≈ 6.69 µM) | 62.5 | 0.625 (≈ 1.34 µM) | 25 (≈ 53.5 µM) | 0.38 |  | 20 | 40 | 4 | 4 | 8 | 8 | FICI, drug combined with CAZ (P. aeruginosa LESB58 [2]; listed as tobramycin): < 0.4; FICI, drug combined with CZA (P. aeruginosa LESB58 [2]; listed as tobramycin): < 0.4; Fold decrease in CAZ MIC, drug combined with CAZ (P. aeruginosa LESB58-lux; LESB58-lux): 8; Fold decrease in CZA MIC, drug combined with CZA (P. aeruginosa LESB58-lux; LESB58-lux): 2; Fold decrease in other MIC, drug combined with CAZ (P. aeruginosa LESB58-lux; LESB58-lux): 4; Fold decrease in other MIC, drug combined with CZA (P. aeruginosa LESB58-lux; LESB58-lux): 8; FICI, drug combined with CAZ (P. aeruginosa LESB58-lux; LESB58-lux): 0.38; FICI, drug combined with CZA (P. aeruginosa LESB58-lux; LESB58-lux): 0.63; FICI, drug combined with CAZ (P. aeruginosa LESB58-lux; LESB58-lux, listed as tobramycin): synergised; also recorded: retained; Area of dermoncecrosis, Mean (P. aeruginosa LESB58 [4]; tigecycline and tobramycin groups (shared vehicle, CAZ and CZA mice), female Swiss Webster mice, 50 μL s.c. 1 h after infection, day 3, CAZ or CZA 50, CST 1.25, TGC 2.5, TOB 2 mg/mL, vehicle 0.9% saline): 55.6 mm^2; Area of dermoncecrosis, % reduction (P. aeruginosa LESB58 [4]; [8]): 40.9%; CFU per abscess, Fold change (P. aeruginosa LESB58 [4]; [8]): -5.4; Area of dermoncecrosis, % reduction (P. aeruginosa LESB58 [4]; tigecycline and tobramycin groups, compared to the vehicle control, day 3, listed as tobramycin): 41%; CFU per abscess, Geometric mean (P. aeruginosa LESB58 [4]; tigecycline and tobramycin groups, day 3): 4.5 × 10^7 CFU per abscess; Fold reduction of bacterial load (CFU) relative to vehicle (P. aeruginosa LESB58 [4]; tigecycline, tobramycin experiments): ~5 |
| C[C@]1(Cn2ccnn2)[C@H](C(=O)O)N2C(=O)C[C@H]2S1(=O)=O [Tazobactam] |  |  |  |  |  |  |  |  |  |  |  |  | Highest tolerated dose tested ([3]; female, Swiss Webster, mouse, in vivo, sc, 1 day): 25 mg/mL |
| C[C@H]1[C@H](NC(=O)/C(=N\OC(C)(C)C(=O)O)c2csc(N)n2)C(=O)N1S(=O)(=O)O [ATM, aztreonam] | 62.5 (≈ 144 µM) | 500 | 12.5 (≈ 28.7 µM) | 12.5 (≈ 28.7 µM) | 0.75 | 25 | 8 | 1 | 2 | 2 | 4 | 4 | FICI, drug combined with CZA (P. aeruginosa LESB58 [2]): 0.75 |
